Common to all, as to assay: periodate / malachite green phosphate assay, Lineweaver-Burk
Holding throughout (type): biochemical, synthetic construct

For one assay, the system named is T1, AAM_A1.
T1 construct: gene by GenScript, pBAD TOPO, E. coli TOP10
To be noted: 15 mM NH4Cl, 10 mM imidazole-HCl pH 7.8, 99 °C (Topt). The source says:
periodate / malachite green phosphate assay, Lineweaver-Burk on AAM_A1

The next assay deals with T2, ACM_C1.
T2 construct: gene by GenScript, pBAD TOPO, E. coli TOP10
To be noted: 15 mM NH4Cl, 10 mM imidazole-HCl pH 7.8, 95 °C (Topt). The text has this:
periodate / malachite green phosphate assay, Lineweaver-Burk on ACM_C1

The next assay has as its system T3, ATM_T3.
T3 construct: reconstructed node T ancestor, one of four (125/126 Ser/Lys or Thr/Glu); gene by GenScript, pBAD TOPO, E. coli TOP10
The conditions noted are these: 15 mM NH4Cl, 10 mM imidazole-HCl pH 7.8, 85 °C (Topt). The source says: periodate / malachite green phosphate assay, Lineweaver-Burk on ATM_T3

In another assay the test system is T4, ATM_T4.
T4 construct: reconstructed node T ancestor, one of four (125/126 Ser/Lys or Thr/Glu); gene by GenScript, pBAD TOPO, E. coli TOP10
The conditions noted are these: 15 mM NH4Cl, 10 mM imidazole-HCl pH 7.8, 83 °C (Topt). The source says: periodate / malachite green phosphate assay, Lineweaver-Burk on ATM_T4

The subject of another assay is T5, ACM_C2.
T5 construct: gene by GenScript, pBAD TOPO, E. coli TOP10
The conditions noted are these: 15 mM NH4Cl, 10 mM imidazole-HCl pH 7.8, 95 °C (Topt). The source says:
periodate / malachite green phosphate assay, Lineweaver-Burk on ACM_C2

The test system of another assay is T6, ATM_T2.
T6 construct: reconstructed node T ancestor, one of four (125/126 Ser/Lys or Thr/Glu); gene by GenScript, pBAD TOPO, E. coli TOP10
To be noted: 15 mM NH4Cl, 10 mM imidazole-HCl pH 7.8, 83 °C (Topt). The text has this:
periodate / malachite green phosphate assay, Lineweaver-Burk on ATM_T2

A further assay concerns T7, AAM_A2.
T7 construct: gene by GenScript, pBAD TOPO, E. coli TOP10
The conditions noted are these: 15 mM NH4Cl, 10 mM imidazole-HCl pH 7.8, 99 °C (Topt). The text has this:
periodate / malachite green phosphate assay, Lineweaver-Burk on AAM_A2

The next assay relates to T8, ATM_T1.
T8 construct: reconstructed node T ancestor, one of four (125/126 Ser/Lys or Thr/Glu); gene by GenScript, pBAD TOPO, E. coli TOP10
The conditions noted are these: 15 mM NH4Cl, 10 mM imidazole-HCl pH 7.8, 90 °C (Topt). The text has this: periodate / malachite green phosphate assay, Lineweaver-Burk on ATM_T1

Structures are written as SMILES.

Usually Km stands for the concentration of substrate that gives half-maximal velocity. Consider `O=P(O)(O)OC[C@H]1OC(O)[C@H](O)[C@@H](O)[C@@H]1O` (some centres unmarked) [glucose-6-phosphate], for which the Km amounted to 2770 ± 600 µM in the assay on AAM_A1; 2340 ± 460 µM in the assay with ACM_C1; 540 ± 150 µM with ATM_T3; 600 ± 60 µM with ATM_T4; 6270 ± 1940 µM in the assay on ACM_C2; 460 ± 80 µM with ATM_T2. The Km in the assay with AAM_A2 was 1320 ± 110 µM; in the assay with ATM_T1 it was 630 ± 100 µM.

Source of the values: paper PMC3877268, “Reconstructed Ancestral Myo-Inositol-3-Phosphate Synthases Indicate That Ancestors of the Thermococcales and Thermotoga Species Were More Thermophilic than Their Descendants” (PLoS ONE, 2013).
